Source: ChEMBL document CHEMBL5214960 (J Med Chem, 2022)

Legend:
[1] = biological target: Tyrosine-protein phosphatase non-receptor type 3 (Homo sapiens, UniProt P26045); test: Inhibition of PTPH1 (unknown origin)
[2] = biological target: Tyrosine-protein phosphatase non-receptor type 22 (Homo sapiens, UniProt Q9Y2R2); test: Inhibition of LYP (unknown origin)
[3] = biological target: Tyrosine-protein phosphatase non-receptor type 11 (Homo sapiens, UniProt Q06124); test: Inhibition of SHP2 (unknown origin)
[4] = biological target: T1, Low molecular weight phosphotyrosine protein phosphatase (Homo sapiens, UniProt P24666); test: Inhibition of His-tagged human LMW-PTP expressed in Escherichia coli BL21 using pNPP as substrate incubated for 10 mins by microplate reader based spectrophotometric analysis
T1 sequence (P24666 whole entry): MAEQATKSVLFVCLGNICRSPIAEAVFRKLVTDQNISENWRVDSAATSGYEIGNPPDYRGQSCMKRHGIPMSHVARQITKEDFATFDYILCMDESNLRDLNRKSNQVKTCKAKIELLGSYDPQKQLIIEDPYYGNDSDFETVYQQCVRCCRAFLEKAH

[5] = biological target: Receptor-type tyrosine-protein phosphatase F (Homo sapiens, UniProt P10586); test: Inhibition of LAR(unknown origin)
[6] = biological target: Dual specificity protein phosphatase 6 (Homo sapiens, UniProt Q16828); test: Inhibition of MKP3 (unknown origin)
[7] = biological target: Dual specificity protein phosphatase CDC14A (Homo sapiens, UniProt Q9UNH5); test: Inhibition of CDC14A (unknown origin)
[8] = biological target: Serine/threonine-protein phosphatase 5 (Homo sapiens, UniProt P53041); test: Inhibition of PP5 (unknown origin)
CYP2C9 = CYP2C9 (Homo sapiens, UniProt P11712); test: Inhibition of human hepatic CYP2C9 using diclofenac as substrate measured after 10 mins by LC-MS analysis relative to control; type: ADME, tissue-based; design: concentration or dose not given beside the values; conditions: human hepatic CYP2C9 (liver), probe diclofenac
[9] = Plasma protein binding in mouse assessed as unbound fraction measured after 4.5 hrs by LC-MS/MS analysis; type: ADME, cell-free
[10] = Cmax in CD-1 mouse plasma at 10 mg/kg, po measured after 8 hrs by LC-MS/MS analysis; type: ADME, organism-based; design: dose 10 mg/kg, time 8 hrs, route po; conditions: mouse, in vivo, 8 h
[11] = Cmax in CD-1 mouse plasma at 2 mg/kg, iv measured after 8 hrs by LC-MS/MS analysis; type: ADME, organism-based; design: time 8 hrs, dose 2 mg/kg, route iv
[12] = AUC(0 to 12 hrs) in Sprague-Dawley rat plasma at 30 mg/kg, po measured after 24 hrs by LC-MS/MS analysis; type: ADME, organism-based; design: time 24 hrs, dose 30 mg/kg, route po; conditions: in vivo
[13] = Unbound Cmax in plasma of Sprague-Dawley rat at 3 mg/kg, po measured after 24 hrs by LC-MS/MS analysis; type: ADME, organism-based; conditions: in vivo
[14] = biological target: T1, Low molecular weight phosphotyrosine protein phosphatase; test: Competitive inhibition of LMW-PTP (unknown origin) assessed as inhibition constant by Lineweaver-Burk plot analysis

Chain of Tyrosine-protein phosphatase non-receptor type 22 (Q9Y2R2 whole entry): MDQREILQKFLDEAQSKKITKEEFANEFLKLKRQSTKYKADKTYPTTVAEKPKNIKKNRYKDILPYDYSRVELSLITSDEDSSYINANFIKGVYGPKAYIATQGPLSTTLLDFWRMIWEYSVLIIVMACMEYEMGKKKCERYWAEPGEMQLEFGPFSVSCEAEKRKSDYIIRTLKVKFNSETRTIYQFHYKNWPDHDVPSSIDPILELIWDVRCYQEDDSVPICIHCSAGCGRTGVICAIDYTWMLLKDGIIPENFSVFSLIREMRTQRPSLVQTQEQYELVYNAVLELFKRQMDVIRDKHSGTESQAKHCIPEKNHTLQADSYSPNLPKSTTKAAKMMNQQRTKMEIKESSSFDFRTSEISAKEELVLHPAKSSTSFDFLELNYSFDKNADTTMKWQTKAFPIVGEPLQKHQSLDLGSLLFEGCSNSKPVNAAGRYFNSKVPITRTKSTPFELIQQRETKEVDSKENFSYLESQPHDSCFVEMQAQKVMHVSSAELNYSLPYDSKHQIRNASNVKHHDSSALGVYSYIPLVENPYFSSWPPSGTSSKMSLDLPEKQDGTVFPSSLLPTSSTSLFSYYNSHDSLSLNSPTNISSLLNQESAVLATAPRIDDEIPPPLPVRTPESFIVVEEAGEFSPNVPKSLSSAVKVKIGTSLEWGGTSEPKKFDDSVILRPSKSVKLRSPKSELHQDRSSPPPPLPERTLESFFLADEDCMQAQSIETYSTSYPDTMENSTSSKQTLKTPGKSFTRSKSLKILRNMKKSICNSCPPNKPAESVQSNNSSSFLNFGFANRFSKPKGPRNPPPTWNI
Chain of Dual specificity protein phosphatase 6 (Q16828 whole entry): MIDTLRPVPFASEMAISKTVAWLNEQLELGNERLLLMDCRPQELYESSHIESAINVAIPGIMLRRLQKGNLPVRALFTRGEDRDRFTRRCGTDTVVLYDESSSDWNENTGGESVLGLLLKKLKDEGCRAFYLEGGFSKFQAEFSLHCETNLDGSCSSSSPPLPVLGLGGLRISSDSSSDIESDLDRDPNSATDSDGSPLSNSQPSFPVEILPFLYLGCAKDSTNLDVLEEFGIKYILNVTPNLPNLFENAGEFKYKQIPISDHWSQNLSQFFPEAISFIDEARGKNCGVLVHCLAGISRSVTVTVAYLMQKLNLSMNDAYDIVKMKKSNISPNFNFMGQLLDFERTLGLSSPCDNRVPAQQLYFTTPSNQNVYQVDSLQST
Chain of Tyrosine-protein phosphatase non-receptor type 3 (P26045 whole entry): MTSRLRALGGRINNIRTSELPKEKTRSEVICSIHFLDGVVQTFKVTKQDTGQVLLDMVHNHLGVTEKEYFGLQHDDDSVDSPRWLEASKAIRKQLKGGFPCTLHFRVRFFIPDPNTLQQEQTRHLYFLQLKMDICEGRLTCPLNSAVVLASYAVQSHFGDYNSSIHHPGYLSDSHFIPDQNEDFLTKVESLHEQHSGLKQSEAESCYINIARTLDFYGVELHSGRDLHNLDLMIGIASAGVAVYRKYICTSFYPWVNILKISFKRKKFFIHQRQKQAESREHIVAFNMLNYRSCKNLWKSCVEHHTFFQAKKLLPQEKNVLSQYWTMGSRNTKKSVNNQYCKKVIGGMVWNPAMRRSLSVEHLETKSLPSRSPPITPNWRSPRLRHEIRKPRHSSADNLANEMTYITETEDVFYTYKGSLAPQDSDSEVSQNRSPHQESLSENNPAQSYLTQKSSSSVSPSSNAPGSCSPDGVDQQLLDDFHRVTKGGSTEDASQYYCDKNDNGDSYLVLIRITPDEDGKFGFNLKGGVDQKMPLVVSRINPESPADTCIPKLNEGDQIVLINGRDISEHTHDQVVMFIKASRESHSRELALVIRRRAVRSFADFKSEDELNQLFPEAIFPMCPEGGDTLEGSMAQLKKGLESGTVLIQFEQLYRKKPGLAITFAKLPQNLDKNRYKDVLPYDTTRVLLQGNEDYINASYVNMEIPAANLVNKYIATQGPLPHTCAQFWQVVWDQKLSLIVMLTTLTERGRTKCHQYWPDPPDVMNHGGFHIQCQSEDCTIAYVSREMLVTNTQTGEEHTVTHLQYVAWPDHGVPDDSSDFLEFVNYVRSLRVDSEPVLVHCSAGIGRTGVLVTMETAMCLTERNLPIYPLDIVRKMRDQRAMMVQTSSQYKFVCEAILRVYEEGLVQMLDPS
Chain of CYP2C9 (P11712 whole entry): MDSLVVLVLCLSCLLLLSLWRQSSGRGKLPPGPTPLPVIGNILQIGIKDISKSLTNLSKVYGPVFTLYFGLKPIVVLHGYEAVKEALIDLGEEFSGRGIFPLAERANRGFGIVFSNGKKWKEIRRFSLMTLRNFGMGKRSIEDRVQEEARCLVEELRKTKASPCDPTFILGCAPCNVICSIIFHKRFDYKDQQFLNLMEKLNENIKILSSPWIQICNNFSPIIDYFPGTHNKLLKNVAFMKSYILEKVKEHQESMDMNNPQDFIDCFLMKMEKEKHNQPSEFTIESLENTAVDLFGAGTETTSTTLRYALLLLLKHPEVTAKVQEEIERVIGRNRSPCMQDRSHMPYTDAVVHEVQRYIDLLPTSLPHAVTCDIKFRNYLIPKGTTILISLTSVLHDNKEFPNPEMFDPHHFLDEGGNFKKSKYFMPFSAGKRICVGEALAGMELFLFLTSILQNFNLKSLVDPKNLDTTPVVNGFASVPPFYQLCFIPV
Chain of Tyrosine-protein phosphatase non-receptor type 11 (Q06124 whole entry): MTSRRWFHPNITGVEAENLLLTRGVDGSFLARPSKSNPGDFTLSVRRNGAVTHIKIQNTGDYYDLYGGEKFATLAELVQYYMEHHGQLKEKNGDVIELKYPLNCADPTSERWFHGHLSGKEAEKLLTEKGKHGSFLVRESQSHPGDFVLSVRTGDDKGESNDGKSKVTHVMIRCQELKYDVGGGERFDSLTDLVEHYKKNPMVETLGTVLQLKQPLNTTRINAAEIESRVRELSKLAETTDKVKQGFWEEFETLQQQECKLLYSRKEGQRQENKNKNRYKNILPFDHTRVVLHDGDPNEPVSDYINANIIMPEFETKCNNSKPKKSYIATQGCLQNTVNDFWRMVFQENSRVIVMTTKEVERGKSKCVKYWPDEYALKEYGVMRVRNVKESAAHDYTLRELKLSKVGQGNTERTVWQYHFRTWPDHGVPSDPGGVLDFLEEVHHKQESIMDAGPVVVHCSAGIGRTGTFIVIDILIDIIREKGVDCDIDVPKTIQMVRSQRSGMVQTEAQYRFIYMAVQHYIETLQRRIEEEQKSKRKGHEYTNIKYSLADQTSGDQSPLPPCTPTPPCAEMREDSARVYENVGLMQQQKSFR
Chain of Receptor-type tyrosine-protein phosphatase F (P10586 whole entry): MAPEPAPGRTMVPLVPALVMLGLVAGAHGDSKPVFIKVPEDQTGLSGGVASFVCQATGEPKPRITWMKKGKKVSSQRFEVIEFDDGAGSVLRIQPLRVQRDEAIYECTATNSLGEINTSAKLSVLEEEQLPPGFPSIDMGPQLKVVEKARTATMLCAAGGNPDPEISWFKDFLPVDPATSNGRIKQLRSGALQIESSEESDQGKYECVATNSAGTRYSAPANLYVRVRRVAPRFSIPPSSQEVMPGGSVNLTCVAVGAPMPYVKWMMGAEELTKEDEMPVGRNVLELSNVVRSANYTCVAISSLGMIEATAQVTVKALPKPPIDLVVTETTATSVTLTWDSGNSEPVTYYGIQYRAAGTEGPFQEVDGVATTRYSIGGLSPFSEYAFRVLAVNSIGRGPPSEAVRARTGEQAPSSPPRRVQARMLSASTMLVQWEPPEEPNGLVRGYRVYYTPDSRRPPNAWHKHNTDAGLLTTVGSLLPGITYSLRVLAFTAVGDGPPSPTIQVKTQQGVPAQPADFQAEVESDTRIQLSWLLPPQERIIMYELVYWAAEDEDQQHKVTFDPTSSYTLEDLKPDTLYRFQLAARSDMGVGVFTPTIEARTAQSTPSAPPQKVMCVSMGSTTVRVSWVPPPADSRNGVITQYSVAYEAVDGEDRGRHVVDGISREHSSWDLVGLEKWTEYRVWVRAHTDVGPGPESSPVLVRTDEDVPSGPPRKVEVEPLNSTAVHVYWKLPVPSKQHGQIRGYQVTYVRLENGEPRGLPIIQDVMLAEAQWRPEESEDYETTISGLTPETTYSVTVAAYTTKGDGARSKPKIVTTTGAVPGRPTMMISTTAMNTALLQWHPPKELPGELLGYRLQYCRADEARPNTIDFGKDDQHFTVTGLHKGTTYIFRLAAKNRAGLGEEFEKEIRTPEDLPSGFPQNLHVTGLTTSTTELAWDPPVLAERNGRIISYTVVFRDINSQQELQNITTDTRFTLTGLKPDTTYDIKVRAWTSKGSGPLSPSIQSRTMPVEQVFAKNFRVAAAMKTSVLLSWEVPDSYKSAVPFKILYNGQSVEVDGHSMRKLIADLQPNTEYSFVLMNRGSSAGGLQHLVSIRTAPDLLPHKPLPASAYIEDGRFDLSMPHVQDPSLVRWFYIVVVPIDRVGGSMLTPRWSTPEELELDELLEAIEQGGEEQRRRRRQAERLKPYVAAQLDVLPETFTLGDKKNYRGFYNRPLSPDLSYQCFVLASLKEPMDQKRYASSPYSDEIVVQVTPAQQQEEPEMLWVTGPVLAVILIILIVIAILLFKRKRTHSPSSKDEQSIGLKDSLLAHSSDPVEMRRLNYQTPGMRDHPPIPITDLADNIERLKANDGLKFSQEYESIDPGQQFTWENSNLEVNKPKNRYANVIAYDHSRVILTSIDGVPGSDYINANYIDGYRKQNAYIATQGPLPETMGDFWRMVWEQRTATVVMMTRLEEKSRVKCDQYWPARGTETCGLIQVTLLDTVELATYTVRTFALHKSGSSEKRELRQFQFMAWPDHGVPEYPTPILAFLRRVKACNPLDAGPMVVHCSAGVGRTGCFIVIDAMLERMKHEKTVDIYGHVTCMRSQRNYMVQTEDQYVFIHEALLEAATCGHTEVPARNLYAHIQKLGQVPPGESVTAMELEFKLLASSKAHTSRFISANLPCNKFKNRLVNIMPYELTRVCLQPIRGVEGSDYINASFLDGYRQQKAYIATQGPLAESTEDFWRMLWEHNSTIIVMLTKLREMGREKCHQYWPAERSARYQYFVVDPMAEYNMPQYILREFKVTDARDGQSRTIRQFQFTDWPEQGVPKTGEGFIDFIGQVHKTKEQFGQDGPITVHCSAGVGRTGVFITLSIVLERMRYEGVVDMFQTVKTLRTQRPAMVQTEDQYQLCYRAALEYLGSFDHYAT

For `Cc1c(Br)cc(NC(=O)NS(=O)(=O)O)cc1Br`, the IC50 [1] was > 10 µM, the IC50 [2] was > 10 µM and the IC50 [3] was > 10 µM. For the same compound, the IC50 [4] was 0.004 µM, the IC50 [5] was > 10 µM and the IC50 [6] was > 10 µM. For the same compound, the IC50 [7] was > 10 µM, the IC50 [8] was > 10 µM and the inhibition at 10 min (CYP2C9) was 0%. For the same compound, the Fu [9] was 0.024, the Cmax [10] was 9.69 µM and the Cmax [11] was 13.4 µM. For the same compound, the AUC [12] was 42.8 µM·h, the fCmax [13] was 21 nM and the Ki [14] was 0.0012 µM.
